Data on two compounds can be found in ChEMBL document CHEMBL2086334, “Fluorogenic assay of alkaline phosphatase activity based on the modulation of excited-state intramolecular proton transfer” (Bioorg Med Chem Lett, 2012).

Assay [1] in a line: Activity of alkaline phosphatase assessed as compound hydrolysis at 20 uM assessed as increase in fluorescence intensity every 1 min for 10 mins by fluorescence spectrophotometry relative to control.
Assay [2] is described as follows: Activity of alkaline phosphatase assessed as compound hydrolysis assessed as increase in fluorescence intensity measured every 30 secs for 10 mins by Lineweaver-Burk plot analysis.
The nature of assay [3]: Activity of levamisole-pretreated alkaline phosphatase assessed as compound hydrolysis at 20 uM measured every 0.5 mins for 10 mins by fluorescence spectrophotometry.
A short description of assay [4]: Activity of alkaline phosphatase assessed as compound hydrolysis at 20 uM at 0.1 to 50 nM enzyme concentration measured every 1 min for 10 mins by fluorescence spectrophotometry.
Assay [5] can be described thus: Inhibition of alkaline phosphatase.

The source made the active and inactive calls. The rule behind the calls is not given here.

A word on the Km: it is the substrate concentration at which the rate is half of its maximum. Broadly, the kcat is the number of substrate molecules converted per active site and unit of time at saturation. On to `O=P(O)(O)Oc1ccccc1-c1nc(-c2ccccc2)cs1`, for which the fold change (FC) in assay [1] worked out at 455. Also, in assay [2], the Km came to 1.9 µM and the kcat came out at 0.09 s⁻¹. Besides, the result in assay [3] was inactive. Moreover, in assay [4], the result was Active.

By IC50 is commonly meant the concentration at which inhibition is half-maximal. Read a low IC50 as greater potency. For the compound `c1ccc([C@H]2CN3CCSC3=N2)cc1` [LEVAMISOLE], half-maximal inhibition in assay [5] (IC50) required 13.3 µM.
